Assay results published in patent publication US8466203B2, “Method of stabilizing human eye tissue by reaction with nitrite and related agents such as nitro compounds” (priority 2006, dated 2013).
Where “and” joins values, the source holds several entries; their conditions need not be identical. Identical values can stand only once. Like-named read-outs stand apart in the source and are kept apart here.

Key:
[1] = system: human sclera; experiment: Thermal shrinkage temperature analysis of human scleral strips; conditions: pH 7.4, 37° C., 96 hrs
From the text: Thermal shrinkage temperature or denaturation temperature (Ts) is a technique that has been used for decades in studying collagen cross-linking. As collagen fibers are progressively heated, a threshold temperature is reached at which point disruption of hydrogen bonding in the collagen molecule triple helix occurs, resulting in unwinding of the triple helices. The denaturation of tertiary protein structure results in a rapid shrinkage of the tissue of up to 80%. This phenomenon can be expressed in various ways including temperature of onset of tissue shrinkage, temperature at maximal tissue shrinkage, and temperature at 50% of maximal tissue shrinkage, for example. In addition, differential scanning calorimetry (DSC) is related to thermal shrinkage temperature analysis and is widely used to evaluate biomaterial cross-linking. Thermal shrinkage temperature is essentially a simplified version of DSC and can be used effectively to screen the cross-linking efficacy of compounds. For the purposes of this study, the onset of shrinkage is considered the Ts and the temperature at which 50% of maximal shrinkage has occurred is T50. Graphs depicting the relationship between degree of shrinkage and temperature indicate differences in degree of cross-linking between groups. Thus, stabilization of collagen fiber structures through non-enzymatic cross-linking increases Ts and T50. A 5° C. upward shift in Ts for the anterior corneal stroma has been shown for the UVR cross-linking method (Spoerl, E., et al., 2004).
A semi-automated system has been developed which increases the efficiency and accuracy of Ts data collection. This system can perform multiple Ts assays in succession, allowing rapid screening of a number of potential cross-linking agents and conditions. […] Inlet and outlet fittings allow for constant circulation of heated water which is modulated by a digitally controlled water bath equipped with a water pump. The entire box is placed on a digital photo scanner connected to a Windows based computer. Beginning at 50° C. the temperature is raised at a rate of 1° C./min and serial scans are taken at every degree increase in temperature up to 80° C. Control pig corneas shrink at approximately 63° C. and cross-linked tissue at higher temperatures. As the tissue shrinks, the images are captured by the scanner. The image files are later analyzed for 2-dimensional area using NIH Image J software and % shrinkage calculations are made using Microsoft Excel for graphing purposes. This method obviates the need for removal of tissue pieces from the water bath with manual micrometer measurements as described by the UVR group (Spoerl, E., et al., 2004). Thus, the labor involved in acquiring data is lessened and the accuracy using image analysis is improved.
Shrinkage temperature (Ts) of porcine cornea (FIG. 16) and porcine and human sclera (FIGS. 17 and 18) cross-linked with 2-nitroethanol. […] Following reaction, thermal shrinkage temperature analysis was performed (Table 4). Several compounds were studied including NaNO2, 2-nitroethanol, 2-nitro-1-propanol, 3-nitro-2-pentanol, 2-nitrophenol, 2-nitroethane, 2-aminoethanol, isopentyl nitrite, DPTA/NO, DETA/NO, and urea, a nitrous acid trap.

[2] = system: ARPE-19 cells
From the text: A cytotoxicity study was undertaken to obtain an impression of the level of cellular tolerance to these compounds. For pilot experiments ARPE-19 cells were used. This is an immortal human retinal pigment epithelial cell line commonly used for experiments related to macular degeneration. In these pilot studies, the ARPE-19 cells serve as a surrogate for cytotoxicity experiments. Primary cultures of bovine corneal endothelial cells were also used in the cytotoxicity studies described. Bovine corneal cells have more direct relevance for evaluating potential cytotoxic effects during cross-linking of living eye tissue.
ARPE-19 cells were grown to 80% confluence in 96 well tissue culture plates. The cells were then exposed to varying concentrations of NaNO2 and 2-nitroethanol in their culture medium and evaluated for cell death using trypan blue (TB) staining (0.4% for 5 min) after 24 hrs.

[3] = system: porcine cornea; experiment: Gross stiffness of porcine corneal strips handled with a forceps; conditions: 100 mM, pH 7.4, 37° C., 48 hrs
Protocol: Fresh porcine corneal strips and corneoscleral complexes obtained within 6 hrs of sacrifice and incubated at 37° C. in buffered solutions (pH 7.4) containing 20% Dextran (T500) and either 100 mM NaNO2 or 100 mM of one each of the specified β-nitro alcohols
These images were taken from tissues cross-linked with nitrite and the β-nitro alcohols 2-nitroethanol, 2-nitro-1-propanol, and […], for 48 hrs. […] Fresh porcine corneal strips and corneoscleral complexes were obtained within 6 hrs of sacrifice and incubated at 37° C. in buffered solutions (pH 7.4) containing 20% Dextran (T500) and either 100 mM NaNO2 or 100 mM of one each of the β-nitro alcohols. After 48 hrs, the following images were obtained. […] FIGS. 13 (B and D)

[4] = system: porcine sclera; experiment: Yellowing of cross-linked scleral tissue
Protocol: Additional β-nitro alcohols related to 2-nitroethanol were also tested for scleral cross-linking efficacy. In addition to 2-nitroethanol, there was 2-nitro-1-propanol, 3-nitro-2-pentanol, and 2-nitrophenol. […] This effect was not blocked by addition of equimolar urea (Table 5).

[5] = system: primary bovine corneal endothelial cells; conditions: for Cytotoxic threshold (using trypan blue): 48 hrs exposure

## O=[N+]([O-])CCO [2-nitroethanol]
[1]; 1 mM
  T50 (temperature at 50% of maximal shrinkage): 66.3 °C
  T50 Δ (change in 50% shrinkage temperature compared to control): 0.3 °C
  Ti (temperature at 1% absolute shrinkage): 60.8 °C
[1]; 10 mM
  T50 (temperature at 50% of maximal shrinkage): 68.2 °C
  T50 Δ (change in 50% shrinkage temperature compared to control): 2.2 °C
  Ti (temperature at 1% absolute shrinkage): 64.4 °C
[1]; 100 mM
  T50 (temperature at 50% of maximal shrinkage): 73.5 °C
  T50 Δ (change in 50% shrinkage temperature compared to control): 7.5 °C
  Ti (temperature at 1% absolute shrinkage): 71.7 °C
[2]; 1 mM, 24 hrs
  trypan blue (TB) uptake: no TB was taken up
[2]; 10 mM, 24 hrs
  trypan blue (TB) uptake: all of the cells took up TB
[2]; 24 hrs, trypan blue
  cytotoxic threshold: > 1 mM and 1 to 10 mM
[2]; ARPE-19
  highest tolerated level: 1 mM
  tolerable level: 0.0091%
[3]
  stiffness change when handled with a forceps: dramatic stiffness change
[4]
  propensity to induce tissue yellowing: greatest propensity to induce tissue yellowing
[5]; 0.1 mM
  Cytotoxic threshold (using trypan blue): −
[5]; 0.5 mM
  Cytotoxic threshold (using trypan blue): −
[5]; 0.75 mM
  Cytotoxic threshold (using trypan blue): −
[5]; 1 mM
  Cytotoxic threshold (using trypan blue): −
[5]; 2 mM
  Cytotoxic threshold (using trypan blue): −
[5]; 3 mM
  Cytotoxic threshold (using trypan blue): +
[5]; 5 mM
  Cytotoxic threshold (using trypan blue): +
[5]; 7 mM
  Cytotoxic threshold (using trypan blue): +
[5]; 10 mM
  Cytotoxic threshold (using trypan blue): +
[5]; bovine corneal endothelial cells
  tolerable level: 0.0273%
[5]; bovine corneal endothelial cells, 48 hrs
  highest tolerated level: 2 mM and 3 mM
